Measured values taken from US20230031406A1, “COMPOUNDS AND COMPOSITIONS FOR TREATING CONDITIONS ASSOCIATED WITH NLRP ACTIVITY” (Novartis AG, priority 2018, published 2023).

Test system: PMA-differentiated THP-1 cells
Assay: IL-1β production in PMA-differentiated THP-1 cells stimulated with gramicidin (hTHP-1 assay containing 2% fetal bovine serum; Procedures 1 and 2)
Assay type: cell-based, human
Conditions: Homo sapiens, THP-1, Table B2; 2% fetal bovine serum; class symbols; read-out: hTHP-1 IC50
How it was run: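 Compound titrations in 0.37% final DMSO were added to THP-1 cells that had been plated after 16-18 h PMA treatment, 50,000 per well in 2% FBS. One hour later the cells received gramicidin (5 μM, 2 h) and were centrifuged. HTRF detected IL-1β in the collected supernatants.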

Compound | IC50
CC(C)(O)c1scc(S(N)(=O)=NC(=O)Nc2c3c(nc4c2CCC4)CCC3)c1F (single isomer, unassigned) [Compound 701a, (R) or (S)-4-Fluoro-N′-((1,2,3,5,6,7-hexahydrodicyclopenta [b,e]pyridin-8-yl)carbamoyl)-5-(2-hydroxypropan-2-yl)thiophene-3-sulfonimidamide] | 5 to 30 µM
Cc1c(C(F)(F)F)nc2c(c1NC(=O)N=[S@](N)(=O)c1ccn(C)n1)CCC2 (single isomer, unassigned) [Compound 730a] | 5 to 30 µM

Same assay, conditions: Homo sapiens, THP-1, Table B2; 2% fetal bovine serum; numeric bounds; read-out: hTHP-1 IC50

Compound | IC50
CC(C)(O)c1scc(S(N)(=O)=NC(=O)Nc2c3c(nc4c2CCC4)CCC3)c1F (single isomer, unassigned) [Compound 701b, (S) or (R)-4-Fluoro-N′-((1,2,3,5,6,7-hexahydrodicyclopenta [b,e]pyridin-8-yl)carbamoyl)-5-(2-hydroxypropan-2-yl)thiophene-3-sulfonimidamide] | > 30 µM

Same assay, conditions: Homo sapiens, THP-1, Table B3; hTHP-1 assay, 2% fetal bovine serum; class symbols; read-out: IC50

Compound | IC50
CC(C)n1nc(S(N)(=O)=NC(=O)Nc2c3c(nc4c2CCC42CC2)CCC3)cc1CO (single isomer, unassigned) [Example 641, (R) or (S)-5-(hydroxymethyl)-1-isopropyl-N′-((1′,5′,6′,7′-tetrahydro-2′H-spiro[cyclopropane-1,3′-dicyclopenta[b,e]pyridin]-8′-yl)carbamoyl)-1H-pyrazole-3-sulfonimidamide] | 1 to 5 µM
CC(C)n1nc(S(N)(=O)=NC(=O)Nc2c3c(nc4c2CC[C@H]4C)CCC3)cc1CO (single isomer, unassigned) [Example 643, (R) or (S)-5-(hydroxymethyl)-1-isopropyl-N′-(((R)-3-methyl-1,2,3,5,6,7-hexahydrodicyclopenta[b,e]pyridin-8-yl)carbamoyl)-1H-pyrazole-3-sulfonimidamide] | 1 to 5 µM

Same assay, conditions: Homo sapiens, THP-1, Table B3; hTHP-1 assay, 2% fetal bovine serum; numeric values; read-out: IC50

Compound | IC50
CC(C)n1nc(S(N)(=O)=NC(=O)Nc2c3c(nc4c2CCC42CC2)CCC3)cc1CO (single isomer, unassigned) [Example 642, (S) or (R)-5-(hydroxymethyl)-1-isopropyl-N′-((1′,5′,6′,7′-tetrahydro-2′H-spiro[cyclopropane-1,3′-dicyclopenta[b,e]pyridin]-8′-yl)carbamoyl)-1H-pyrazole-3-sulfonimidamide] | > 30 µM
CC(C)n1nc(S(N)(=O)=NC(=O)Nc2c3c(nc4c2CC[C@H]4C)CCC3)cc1CO (single isomer, unassigned) [Example 644, (S) or (R)-5-(hydroxymethyl)-1-isopropyl-N′-(((R)-3-methyl-1,2,3,5,6,7-hexahydrodicyclopenta[b,e]pyridin-8-yl)carbamoyl)-1H-pyrazole-3-sulfonimidamide] | > 30 µM

Same assay, conditions: Homo sapiens, THP-1, read-out: hTHP-1 IC50 in 2% FBS, hTHP-1 assay containing 2% fetal bovine serum; Table B5

Compound | IC50
CCn1cc(F)c(S(N)(=O)=NC(=O)Nc2c(C)c(C(F)(F)F)nc3c2CC(C)C3)n1 (single isomer, unassigned) [Compound 1101a] | 0.04 to 0.2 µM

Same assay, conditions: Table B2; 2% fetal bovine serum; class symbols; read-out: hTHP-1 IC50

Compound | IC50
CC(C)(O)c1cc(S(N)(=O)=NC(=O)Nc2c3c(nc4c2CCC4(C)C)CCC3)nn1-c1ccc(F)cc1 (single isomer, unassigned) [Compound 705a, (S) or (R)-N′-((3,3-dimethyl-1,2,3,5,6,7-hexahydrodicyclopenta [b,e]pyridin-8-yl)carbamoyl)-1-(4-fluorophenyl)-5-(2-hydroxypropan-2-yl)-1H-pyrazole-3-sulfonimidamide] | 5 to 30 µM
CC(C)(O)c1cc(S(N)(=O)=NC(=O)Nc2c3c(nc4c2CCC4(C)C)CCC3)nn1-c1ccc(F)cc1 (single isomer, unassigned) [Compound 705b, (R) or (S)-N′-((3,3-dimethyl-1,2,3,5,6,7-hexahydrodicyclopenta [b,e]pyridin-8-yl)carbamoyl)-1-(4-fluorophenyl)-5-(2-hydroxypropan-2-yl)-1H-pyrazole-3-sulfonimidamide] | 1 to 5 µM
CCc1cc(F)c(S(N)(=O)=NC(=O)Nc2c3c(nc4c2CC[C@H]4C)CCC3)s1 (single isomer, unassigned) [Compound 720a, (R) or (S)-5-Ethyl-3-fluoro-N′-(((R)-3-methyl-1,2,3,5,6,7-hexahydrodicyclopenta[b, e]pyridin-8-yl)carbamoyl)thiophene-2-sulfonimidamide] | 0.2 to 1 µM
CCc1cc(F)c(S(N)(=O)=NC(=O)Nc2c3c(nc4c2CC[C@H]4C)CCC3)s1 (single isomer, unassigned) [Compound 720b, (S) or (R)-5-Ethyl-3-fluoro-N′-(((R)-3-methyl-1,2,3,5,6,7-hexahydrodicyclopenta[b, e]pyridin-8-yl)carbamoyl)thiophene-2-sulfonimidamide] | 5 to 30 µM
CCc1csc(S(N)(=O)=NC(=O)Nc2c3c(nc4c2CC[C@H]4C)CCC3)c1 (single isomer, unassigned) [Compound 721a, (S) or (R)-4-Ethyl-N′-(((R)-3-methyl-1,2,3,5,6,7-hexahydrodicyclopenta[b, e]pyridin-8-yl)carbamoylithiophene-2-sulfonimidamide] | 5 to 30 µM
CCc1csc(S(N)(=O)=NC(=O)Nc2c3c(nc4c2CC[C@H]4C)CCC3)c1 (single isomer, unassigned) [Compound 721b, (R) or (S)-4-Ethyl-N′-(((R)-3-methyl-1,2,3,5,6,7-hexahydrodicyclopenta[b, e]pyridin-8-yl)carbamoyl)thiophene-2-sulfonimidamide] | 0.04 to 0.2 µM
C[C@@H]1CCc2c1nc1c(c2NC(=O)N=S(N)(=O)c2ccn(C(C)(F)F)n2)CCC1 (single isomer, unassigned) [Compound 723a, (S) or (R)-1-(1,1-Difluoroethyl)-N′-(((R)-3-methyl-1,2,3,5,6,7-hexahydrodicyclopenta[b, e]pyridin-8-yl)carbamoyl)-1H-pyrazole-3-sulfonimidamide] | 5 to 30 µM
C[C@@H]1CCc2c1nc1c(c2NC(=O)N=S(N)(=O)c2ccn(C(C)(F)F)n2)CCC1 (single isomer, unassigned) [Compound 723b, (R) or (S)-1-(1,1-Difluoroethyl)-N′-(((R)-3-methyl-1,2,3,5,6,7-hexahydrodicyclopenta [b,e]pyridin-8-yl)carbamoyl)-1H-pyrazole-3-sulfonimidamide] | 0.04 to 0.2 µM
CCn1cc(Cl)c(S(N)(=O)=NC(=O)Nc2c(C)c(C(F)(F)F)nc3c2CCC3)n1 (single isomer, unassigned) [Compound 729a, (S) or (R)-4-Chloro-1-ethyl-N′-((3-methyl-2-(trifluoromethyl)-6,7-dihydro-5H-cyclopenta[b]pyridin-4-yl)carbamoyl)-1H-pyrazole-3-sulfonimidamide] | 5 to 30 µM
CCn1cc(Cl)c(S(N)(=O)=NC(=O)Nc2c(C)c(C(F)(F)F)nc3c2CCC3)n1 (single isomer, unassigned) [Compound 729b, (R) or (S)-4-Chloro-1-ethyl-N′-((3-methyl-2-(trifluoromethyl)-6,7-dihydro-5H-cyclopenta[b]pyridin-4-yl)carbamoyl)-1H-pyrazole-3-sulfonimidamide] | 0.04 to 0.2 µM

Same assay, conditions: Table B3; hTHP-1 assay, 2% fetal bovine serum; class symbols; read-out: IC50

Compound | IC50
Cc1c(C(F)(F)F)nc2c(c1NC(=O)N=S(N)(=O)c1nn(C(F)F)cc1F)CCC2 (single isomer, unassigned) [Example 562] | 0.2 to 1 µM
Cc1c(C(F)(F)F)nc2c(c1NC(=O)N=S(N)(=O)c1nn(C(F)F)cc1F)CCC2 (single isomer, unassigned) [Example 563] | 5 to 30 µM
CCc1c(CC(F)(F)F)nc2c(c1NC(=O)N=S(N)(=O)c1sc(C(C)(C)O)cc1F)CCC2 (single isomer, unassigned) [Example 639, (R) or (S)-N′-((3-ethyl-2-(2,2,2-trifluoroethyl)-6,7-dihydro-5H-cyclopenta[b]pyridin-4-yl)carbamoyl)-3-fluoro-5-(2-hydroxypropan-2-yl) thiophene-2-sulfonimidamide] | 0.2 to 1 µM
CCc1c(CC(F)(F)F)nc2c(c1NC(=O)N=S(N)(=O)c1sc(C(C)(C)O)cc1F)CCC2 (single isomer, unassigned) [Example 640, (S) or (R)-N′-((3-ethyl-2-(2,2,2-trifluoroethyl)-6,7-dihydro-5H-cyclopenta[b]pyridin-4-yl)carbamoyl)-3-fluoro-5-(2-hydroxypropan-2-yl) thiophene-2-sulfonimidamide] | 5 to 30 µM
CC(C)(O)c1csc(S(N)(=O)=NC(=O)Nc2c3c(nc(C(F)(F)F)c2C2CC2)CCC3)c1 (single isomer, unassigned) [Example 645, (S) or (R)-N′-((3-cyclopropyl-2-(trifluoromethyl)-6,7-dihydro-5H-cyclopenta[b]pyridin-4-yl)carbamoyl)-4-(2-hydroxypropan-2-yl) thiophene-2-sulfonimidamide] | 5 to 30 µM
CC(C)(O)c1csc(S(N)(=O)=NC(=O)Nc2c3c(nc(C(F)(F)F)c2C2CC2)CCC3)c1 (single isomer, unassigned) [Example 646, (R) or (S)-N′-((3-((3-2-(trifluoromethyl)-6,7-dihydro-5H-cyclopenta[b]pyridin-4-yl)carbamoyl)-4-(2-hydroxypropan-2-yl)thiophene-2-sulfonimidamide] | 0.04 to 0.2 µM
NS(=O)(=NC(=O)Nc1c2c(nc3c1CCC31CC1)CCC2)c1ccn(CCO)n1 (single isomer, unassigned) [Example 647, (R) or (S)-1-(2-hydroxyethyl)-N′-((1′,5′,6′,7′-tetrahydro-2′H-spiro[cyclopropane-1,3′-dicyclopenta[b,e]pyridin]-8′-yl)carbamoyl)-1H-pyrazole-3-sulfonimidamide] | 0.2 to 1 µM
NS(=O)(=NC(=O)Nc1c2c(nc3c1CCC31CC1)CCC2)c1ccn(CCO)n1 (single isomer, unassigned) [Example 648, (S) or (R)-1-(2-hydroxyethyl)-N′-((1′,5′,6′,7′-tetrahydro-2′H-spiro[cyclopropane-1,3′-dicyclopenta[b,e]pyridin]-8′-yl)carbamoyl)-1H-pyrazole-3-sulfonimidamide] | 5 to 30 µM
